pIC50: −log10 of the molar value.
Columns and labels:
[1] = target: Phosphatidylinositol 4,5-bisphosphate 3-kinase catalytic subunit beta isoform (Homo sapiens, UniProt P42338); test: Inhibition of PI3Kbeta (unknown origin) using PIP2 as substrate preincubated for 15 mins followed by substrate addition measured after 60 mins by HTRF method
[2] = target: Phosphatidylinositol 4,5-bisphosphate 3-kinase catalytic subunit alpha isoform (Homo sapiens, UniProt P42336); test: Inhibition of PI3Kalpha (unknown origin) using PIP2 as substrate preincubated for 15 mins followed by substrate addition measured after 60 mins by HTRF method
[3] = target: T1, Phosphatidylinositol 4,5-bisphosphate 3-kinase catalytic subunit delta isoform (Homo sapiens, UniProt O00329); test: Inhibition of PI3Kdelta (unknown origin) using PIP2 as substrate preincubated for 15 mins followed by substrate addition measured after 60 mins by HTRF method
T1 sequence (O00329 whole entry): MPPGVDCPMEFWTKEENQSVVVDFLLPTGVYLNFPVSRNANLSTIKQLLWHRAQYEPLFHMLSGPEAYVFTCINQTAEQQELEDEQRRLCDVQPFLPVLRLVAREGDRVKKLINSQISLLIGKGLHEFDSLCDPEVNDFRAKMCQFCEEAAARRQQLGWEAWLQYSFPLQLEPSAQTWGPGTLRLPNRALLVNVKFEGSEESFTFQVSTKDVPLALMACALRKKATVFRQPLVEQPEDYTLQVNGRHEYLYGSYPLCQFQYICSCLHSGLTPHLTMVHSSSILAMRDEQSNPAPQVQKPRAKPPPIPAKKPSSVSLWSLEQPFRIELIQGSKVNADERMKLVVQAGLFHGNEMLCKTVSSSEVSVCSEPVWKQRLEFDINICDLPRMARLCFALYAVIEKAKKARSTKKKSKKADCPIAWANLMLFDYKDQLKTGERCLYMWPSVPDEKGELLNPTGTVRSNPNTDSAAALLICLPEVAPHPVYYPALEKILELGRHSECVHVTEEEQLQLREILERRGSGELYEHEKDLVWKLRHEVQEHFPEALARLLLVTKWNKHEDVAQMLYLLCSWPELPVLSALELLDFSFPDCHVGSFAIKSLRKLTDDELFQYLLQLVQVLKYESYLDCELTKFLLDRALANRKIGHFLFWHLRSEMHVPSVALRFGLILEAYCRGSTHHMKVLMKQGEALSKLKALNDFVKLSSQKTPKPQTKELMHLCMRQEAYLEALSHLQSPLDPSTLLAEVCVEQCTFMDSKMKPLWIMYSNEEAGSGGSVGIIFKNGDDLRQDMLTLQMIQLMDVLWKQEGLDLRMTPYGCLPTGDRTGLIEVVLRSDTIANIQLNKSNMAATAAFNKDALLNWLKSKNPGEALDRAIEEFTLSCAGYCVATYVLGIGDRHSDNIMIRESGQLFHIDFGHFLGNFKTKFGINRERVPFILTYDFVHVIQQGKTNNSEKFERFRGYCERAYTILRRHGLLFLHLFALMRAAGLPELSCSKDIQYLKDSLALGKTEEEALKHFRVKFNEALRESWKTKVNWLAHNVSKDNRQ

[4] = target: Phosphatidylinositol 4,5-bisphosphate 3-kinase catalytic subunit gamma isoform (Homo sapiens, UniProt P48736); test: Inhibition of PI3Kgamma (unknown origin) using PIP2 as substrate preincubated for 15 mins followed by substrate addition measured after 60 mins by HTRF method
[5] = target: Epidermal growth factor receptor (Homo sapiens, UniProt P00533); test: Inhibition of EGFR (unknown origin)
[6] = target: Aurora kinase B (Homo sapiens, UniProt Q96GD4); test: Inhibition of Aurora B (unknown origin)
[7] = target: Tyrosine-protein kinase ITK/TSK (Homo sapiens, UniProt Q08881); test: Inhibition of ITK (unknown origin)
[8] = target: Tyrosine-protein kinase BTK (Homo sapiens, UniProt Q06187); test: Inhibition of BTK (unknown origin)
[9] = target: Glycogen synthase kinase-3 beta (Homo sapiens, UniProt P49841); test: Inhibition of GSK3B (unknown origin)
[10] = target: Tyrosine-protein kinase JAK3 (Homo sapiens, UniProt P52333); test: Inhibition of JAK3 (unknown origin)
[11] = target: Mitogen-activated protein kinase 14 (Homo sapiens, UniProt Q16539); test: Inhibition of p38alpha (unknown origin)
[12] = target: Inhibitor of nuclear factor kappa-B kinase subunit beta (Homo sapiens, UniProt O14920); test: Inhibition of IKK2 (unknown origin)
[13] = target: Tyrosine-protein kinase SYK (Homo sapiens, UniProt P43405); test: Inhibition of SYK (unknown origin)
[14] = target: Mitogen-activated protein kinase kinase kinase 5 (Homo sapiens, UniProt Q99683); test: Inhibition of ASK1 (unknown origin)
[15] = target: Rho-associated protein kinase 1 (Homo sapiens, UniProt Q13464); test: Inhibition of ROCK1 (unknown origin)
[16] = target: Mitogen-activated protein kinase 10 (Homo sapiens, UniProt P53779); test: Inhibition of JNK3 (unknown origin)
[17] = target: Leucine-rich repeat serine/threonine-protein kinase 2 (Homo sapiens, UniProt Q5S007); test: Inhibition of LRRK2 (unknown origin)
[18] = target: Tyrosine-protein kinase JAK2 (Homo sapiens, UniProt O60674); test: Inhibition of JAK2 (unknown origin)
[19] = target: Inhibitor of nuclear factor kappa-B kinase subunit alpha (Homo sapiens, UniProt O15111); test: Inhibition of IKK1 (unknown origin)
[20] = target: Tyrosine-protein kinase Lck (Homo sapiens, UniProt P06239); test: Inhibition of LCK (unknown origin)

Sequence of Phosphatidylinositol 4,5-bisphosphate 3-kinase catalytic subunit gamma isoform (P48736 whole entry, canonical isoform): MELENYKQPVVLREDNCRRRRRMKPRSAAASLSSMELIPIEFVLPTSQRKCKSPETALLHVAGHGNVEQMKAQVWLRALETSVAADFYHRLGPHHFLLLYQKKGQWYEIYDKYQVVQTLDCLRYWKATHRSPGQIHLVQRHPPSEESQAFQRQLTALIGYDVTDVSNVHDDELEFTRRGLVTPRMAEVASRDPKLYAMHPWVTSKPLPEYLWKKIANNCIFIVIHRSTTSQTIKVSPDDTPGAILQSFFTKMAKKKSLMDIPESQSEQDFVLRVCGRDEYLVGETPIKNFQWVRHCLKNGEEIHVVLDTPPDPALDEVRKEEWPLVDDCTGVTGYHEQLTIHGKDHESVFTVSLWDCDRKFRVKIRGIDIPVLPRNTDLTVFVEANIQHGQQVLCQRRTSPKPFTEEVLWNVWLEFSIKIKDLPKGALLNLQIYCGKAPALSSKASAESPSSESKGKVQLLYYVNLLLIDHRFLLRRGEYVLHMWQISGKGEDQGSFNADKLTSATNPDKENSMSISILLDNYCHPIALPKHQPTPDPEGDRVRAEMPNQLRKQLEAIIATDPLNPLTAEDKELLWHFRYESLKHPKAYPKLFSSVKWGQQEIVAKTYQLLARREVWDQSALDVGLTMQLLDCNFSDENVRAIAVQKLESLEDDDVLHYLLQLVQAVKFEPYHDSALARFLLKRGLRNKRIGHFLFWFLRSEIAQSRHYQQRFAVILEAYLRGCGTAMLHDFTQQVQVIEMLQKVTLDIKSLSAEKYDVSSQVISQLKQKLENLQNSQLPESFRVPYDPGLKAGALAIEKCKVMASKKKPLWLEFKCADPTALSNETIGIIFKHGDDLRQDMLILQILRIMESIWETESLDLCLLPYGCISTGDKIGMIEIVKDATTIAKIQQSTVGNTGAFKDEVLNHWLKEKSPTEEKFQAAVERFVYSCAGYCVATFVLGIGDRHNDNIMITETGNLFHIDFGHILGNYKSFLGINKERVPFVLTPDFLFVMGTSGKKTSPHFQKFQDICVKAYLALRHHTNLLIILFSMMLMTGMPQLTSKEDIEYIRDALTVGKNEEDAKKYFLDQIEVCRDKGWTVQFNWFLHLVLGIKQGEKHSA
Sequence of Phosphatidylinositol 4,5-bisphosphate 3-kinase catalytic subunit beta isoform (P42338 whole entry, canonical isoform): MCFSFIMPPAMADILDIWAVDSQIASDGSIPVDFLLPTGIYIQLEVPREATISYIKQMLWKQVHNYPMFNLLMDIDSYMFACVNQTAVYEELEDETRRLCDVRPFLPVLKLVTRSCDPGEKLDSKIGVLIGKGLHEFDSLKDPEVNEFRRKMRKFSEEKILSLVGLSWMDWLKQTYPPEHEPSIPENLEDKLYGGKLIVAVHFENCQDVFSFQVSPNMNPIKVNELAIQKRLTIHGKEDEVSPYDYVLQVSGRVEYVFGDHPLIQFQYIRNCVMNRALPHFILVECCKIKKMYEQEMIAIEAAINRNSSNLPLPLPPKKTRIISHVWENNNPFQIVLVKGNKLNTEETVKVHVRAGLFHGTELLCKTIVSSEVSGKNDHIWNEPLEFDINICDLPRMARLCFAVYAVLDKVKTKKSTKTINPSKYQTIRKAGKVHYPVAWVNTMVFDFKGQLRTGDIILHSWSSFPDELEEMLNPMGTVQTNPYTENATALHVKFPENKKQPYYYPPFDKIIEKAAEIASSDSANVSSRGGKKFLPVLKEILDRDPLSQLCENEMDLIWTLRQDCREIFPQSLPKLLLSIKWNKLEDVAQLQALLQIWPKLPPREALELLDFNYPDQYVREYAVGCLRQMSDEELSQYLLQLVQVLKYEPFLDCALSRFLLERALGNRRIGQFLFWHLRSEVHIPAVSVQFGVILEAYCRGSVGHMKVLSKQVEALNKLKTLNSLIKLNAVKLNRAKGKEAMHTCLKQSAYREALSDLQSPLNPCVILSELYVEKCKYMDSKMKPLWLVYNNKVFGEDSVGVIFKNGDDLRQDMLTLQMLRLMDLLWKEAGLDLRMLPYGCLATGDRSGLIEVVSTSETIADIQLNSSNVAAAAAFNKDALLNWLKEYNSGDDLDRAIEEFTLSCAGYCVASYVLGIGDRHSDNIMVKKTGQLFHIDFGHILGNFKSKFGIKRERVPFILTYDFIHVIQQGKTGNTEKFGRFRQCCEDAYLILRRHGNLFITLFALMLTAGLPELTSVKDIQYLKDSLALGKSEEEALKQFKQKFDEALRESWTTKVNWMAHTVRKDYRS
Sequence of Phosphatidylinositol 4,5-bisphosphate 3-kinase catalytic subunit alpha isoform (P42336 whole entry, canonical isoform): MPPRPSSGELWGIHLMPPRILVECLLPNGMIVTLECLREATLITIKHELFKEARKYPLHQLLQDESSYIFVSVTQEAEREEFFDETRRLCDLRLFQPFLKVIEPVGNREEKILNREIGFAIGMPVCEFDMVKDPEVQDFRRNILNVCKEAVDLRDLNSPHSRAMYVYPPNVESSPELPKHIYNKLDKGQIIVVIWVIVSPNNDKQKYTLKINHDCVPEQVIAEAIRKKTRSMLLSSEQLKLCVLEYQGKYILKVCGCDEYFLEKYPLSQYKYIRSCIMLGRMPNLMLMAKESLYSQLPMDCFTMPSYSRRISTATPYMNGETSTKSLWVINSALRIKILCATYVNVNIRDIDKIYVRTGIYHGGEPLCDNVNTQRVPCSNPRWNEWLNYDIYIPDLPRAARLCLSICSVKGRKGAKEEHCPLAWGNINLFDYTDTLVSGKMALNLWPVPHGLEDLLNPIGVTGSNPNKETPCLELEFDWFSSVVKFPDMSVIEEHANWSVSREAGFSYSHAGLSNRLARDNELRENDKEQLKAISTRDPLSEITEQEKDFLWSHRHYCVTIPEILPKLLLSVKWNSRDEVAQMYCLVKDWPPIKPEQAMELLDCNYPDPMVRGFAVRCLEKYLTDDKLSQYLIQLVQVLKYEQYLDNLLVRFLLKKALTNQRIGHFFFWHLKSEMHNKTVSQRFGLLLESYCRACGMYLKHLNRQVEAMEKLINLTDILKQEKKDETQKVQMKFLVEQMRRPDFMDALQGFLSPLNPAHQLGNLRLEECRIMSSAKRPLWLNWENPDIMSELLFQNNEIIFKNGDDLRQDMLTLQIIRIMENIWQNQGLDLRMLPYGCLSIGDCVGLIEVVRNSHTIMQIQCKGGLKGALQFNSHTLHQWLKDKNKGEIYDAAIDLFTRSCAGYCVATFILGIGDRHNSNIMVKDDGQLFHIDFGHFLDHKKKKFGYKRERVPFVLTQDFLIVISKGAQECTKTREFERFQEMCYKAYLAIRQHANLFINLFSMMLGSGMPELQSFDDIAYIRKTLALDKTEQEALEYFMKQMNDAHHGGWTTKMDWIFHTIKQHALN
Sequence of Epidermal growth factor receptor (P00533 whole entry): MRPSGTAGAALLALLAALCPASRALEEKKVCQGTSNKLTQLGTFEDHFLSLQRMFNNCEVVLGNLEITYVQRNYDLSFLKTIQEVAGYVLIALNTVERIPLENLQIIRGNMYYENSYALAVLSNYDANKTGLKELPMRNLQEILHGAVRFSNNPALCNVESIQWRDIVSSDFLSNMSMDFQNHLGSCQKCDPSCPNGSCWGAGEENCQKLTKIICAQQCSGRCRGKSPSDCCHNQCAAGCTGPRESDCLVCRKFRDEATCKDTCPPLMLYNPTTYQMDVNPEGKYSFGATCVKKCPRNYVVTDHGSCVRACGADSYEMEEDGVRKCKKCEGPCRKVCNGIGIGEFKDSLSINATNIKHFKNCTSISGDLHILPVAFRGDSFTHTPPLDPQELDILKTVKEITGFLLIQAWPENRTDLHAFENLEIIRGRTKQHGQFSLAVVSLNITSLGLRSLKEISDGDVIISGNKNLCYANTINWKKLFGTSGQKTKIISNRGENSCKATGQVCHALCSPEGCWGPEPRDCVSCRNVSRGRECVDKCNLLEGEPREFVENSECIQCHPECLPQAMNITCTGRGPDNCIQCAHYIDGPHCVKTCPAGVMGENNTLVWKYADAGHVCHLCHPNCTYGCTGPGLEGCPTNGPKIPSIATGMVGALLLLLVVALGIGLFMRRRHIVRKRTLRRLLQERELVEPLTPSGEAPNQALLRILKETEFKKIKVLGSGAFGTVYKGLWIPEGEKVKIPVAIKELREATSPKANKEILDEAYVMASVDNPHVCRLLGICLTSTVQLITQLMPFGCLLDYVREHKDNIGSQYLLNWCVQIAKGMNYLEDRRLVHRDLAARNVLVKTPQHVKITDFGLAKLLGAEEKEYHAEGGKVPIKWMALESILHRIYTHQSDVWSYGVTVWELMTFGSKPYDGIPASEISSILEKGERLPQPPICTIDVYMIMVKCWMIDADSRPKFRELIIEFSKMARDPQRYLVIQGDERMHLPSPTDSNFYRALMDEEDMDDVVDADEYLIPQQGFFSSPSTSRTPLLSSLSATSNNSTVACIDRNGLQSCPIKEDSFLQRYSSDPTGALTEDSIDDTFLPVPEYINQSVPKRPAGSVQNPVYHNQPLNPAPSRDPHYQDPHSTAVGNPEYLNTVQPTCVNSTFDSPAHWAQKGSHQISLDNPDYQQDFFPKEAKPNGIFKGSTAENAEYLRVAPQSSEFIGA
Sequence of Tyrosine-protein kinase ITK/TSK (Q08881 whole entry): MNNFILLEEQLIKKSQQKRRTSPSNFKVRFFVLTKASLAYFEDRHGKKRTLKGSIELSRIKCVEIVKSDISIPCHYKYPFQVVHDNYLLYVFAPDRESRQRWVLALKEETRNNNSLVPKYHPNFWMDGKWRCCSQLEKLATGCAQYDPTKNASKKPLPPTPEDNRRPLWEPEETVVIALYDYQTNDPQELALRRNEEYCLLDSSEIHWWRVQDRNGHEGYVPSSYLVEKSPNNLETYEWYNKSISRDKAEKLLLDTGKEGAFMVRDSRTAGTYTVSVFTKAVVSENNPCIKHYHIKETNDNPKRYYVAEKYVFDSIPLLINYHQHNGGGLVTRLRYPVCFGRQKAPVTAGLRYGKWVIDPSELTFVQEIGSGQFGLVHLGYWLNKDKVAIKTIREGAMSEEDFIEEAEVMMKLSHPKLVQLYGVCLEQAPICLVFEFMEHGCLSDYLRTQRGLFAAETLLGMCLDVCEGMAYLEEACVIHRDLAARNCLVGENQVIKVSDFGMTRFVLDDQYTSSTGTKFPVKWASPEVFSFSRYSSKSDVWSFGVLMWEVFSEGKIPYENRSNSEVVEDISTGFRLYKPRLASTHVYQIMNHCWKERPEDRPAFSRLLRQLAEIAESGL

pIC50 [1] | pIC50 [2] | pIC50 [3] | pIC50 [4] | other results | Structure (SMILES)
5.40 | 5.20 | 6.40 | 5.60 | – | CS(=O)(=O)Nc1cc(-c2ccc3cn[nH]c3c2)cnc1Cl
< 4.30 | < 4.30 | 4.10 | < 4.30 | – | c1cc(-c2ccncc2)c2cc[nH]c2c1
4.60 | < 3.80 | 5.10 | < 3.80 | – | c1cc(-c2ccc3cn[nH]c3c2)c2cc[nH]c2c1
< 4.30 | < 4.30 | 3.80 | 4.60 | – | c1cc(-c2nnc(CN3CCOCC3)o2)c2cn[nH]c2c1
5.60 | 6.40 | – | 6.50 | – | COc1ncc(-c2cc(-c3ncc(CN4C[C@@H](C)O[C@@H](C)C4)o3)c3cn[nH]c3c2)cc1NS(C)(=O)=O
6.10 | 5.20 | 6.60 | 5.40 | pIC50 [5]: < 5.00; pIC50 [6]: < 5.00; pIC50 [7]: < 5.00; pIC50 [8]: < 5.00; pIC50 [9]: < 5.00; pIC50 [10]: < 5.00; pIC50 [11]: < 5.00; pIC50 [12]: < 5.00; pIC50 [13]: < 5.00; pIC50 [14]: < 5.00; pIC50 [15]: < 5.00; pIC50 [16]: < 5.00; pIC50 [17]: < 5.00; pIC50 [18]: < 5.00; pIC50 [19]: < 5.00; pIC50 [20]: < 5.00 | CS(=O)(=O)Nc1cc(-c2ccncc2)cnc1Cl
